Test results taken from US8652483B2, “Viral infection enhancing peptide” (priority 2010, dated 2014).
Values joined by “and” are separate entries in the source; they are usually repeats but may differ in a detail not shown here. Equal values may be shown once. No end group written: not given here.

How the values were obtained:
[1] = system: primary peripheral blood mononuclear cells (PBMC); assay: Cytotoxicity of SWB; assay type: cell-based
CEM-M7 cells = assay: Cytotoxicity of SWB; assay type: cell-based
KG-1 cells = assay: Cytotoxicity of SWB; assay type: cell-based, human
Jurkat T cells = assay: Cytotoxicity of SWB; assay type: cell-based
Solubility limit in DMSO = assay type: physicochemical; conditions: read-out: solubility limit in DMSO (concentrations above were not completely dissolved)
[2] = system: R5 HIV-1 (CCR5 tropic HIV-1 NL4-3 92TH014-2); assay: HIV-1 infection of TZM-bl cells, R5 virus; assay type: cell-based; conditions: for enhancement of HIV infection: 1 ng p24 virus, 100 μg/ml peptide; for enhancers of HIV infection at the lowest viral dose: 0.01 ng p24 virus
[3] = Thioflavin T (ThT) fluorescence; assay type: physicochemical; conditions: DMSO stock freshly diluted in PBS
Description: (§1) To investigate if SW1010 (like PAP248-286) forms insoluble aggregates, in particular amyloid like material, the reactivity of a freshly prepared SW1010 peptide solution to the amyloid specific dye Thioflavin T (ThT) was analyzed. […] Further evidence that SW1010 forms amyloid like material was derived by staining with another amyloid specific dye, Congo Red (CR) (Münch et al., 2007). […] Thus, when used to enhance retroviral infection or transduction efficiencies (FIG. 1 F), the peptide of the invention provides an important advantage over SEVI amyloid fibrils that have to be generated by agitating the monomeric PAP248-286 by several hours or days on a table rotator (Münch et al., 2007; Wurm et al., 2009).
(§2) Similarly, all SW1010 derivatives were analyzed for ThT and CR reactivity.

[4] = Congo Red (CR) staining assay; assay type: physicochemical; conditions: DMSO stock freshly diluted in PBS
Description: as §1, §2
To test if SWB is soluble in solvents other than DMSO and can form virus enhancing amyloid like material upon diluting in PBS, the inventors resuspended SWB powder in various solvents. […] Since acetic acid stocks were highly toxic for cell culture at higher concentrations, all following SWB stock solutions were then prepared by dissolving the peptide in less cytotoxic DMSO. In all subsequent experiments the concentrations of DMSO in the presence of virus or cells were lower than 1%, preferably between about 0.2 and about 1%.

Row | Substance | enhancement of HIV infection [2] | ThT fluorescence [3] | Congo Red (CR) staining [4] | enhancers of HIV infection at the lowest viral dose [2] | also measured
1 | QCKIKQIINMWQ [SWB] | – | – | – | – | toxic effects [1]: no toxic effects; toxic effects (CEM-M7 cells): no toxic effects; toxic effects (KG-1 cells): no toxic effects; toxic effects (Jurkat T cells): no toxic effects; solubility (Solubility limit in DMSO): 25000 µM and 38000 µg/mL
2 | SW1014: N-terminal half of SW1010 (QIINMWQEVG; SW-peptide derived from peptide gp120 of HIV-1 strain MN (Gurgo et al., 1988)) | weak or no effects | increases fluorescence intensities | specific staining | – | –
3 | SWC: variant of SW1010 of different length (KIKQIINMWQ; SW-peptide derived from peptide gp120 of HIV-1 strain MN (Gurgo et al., 1988)) | – | – | specific staining | most potent enhancers | –
4 | SWCON: peptide derived from a SW1010 homologous consensus sequence of all HIV-1 M strains (TITLPCRIKQIINMWQGVG; SW-peptide derived from peptide gp120 of HIV-1 strain MN (Gurgo et al., 1988)) | – | increases fluorescence intensities | specific staining | most potent enhancers | –
5 | SWE: variant of SW1010 of different length (QCKIKQIINMW; SW-peptide derived from peptide gp120 of HIV-1 strain MN (Gurgo et al., 1988)) | – | increases fluorescence intensities | specific staining | most potent enhancers | –
6 | SWNL43: peptide corresponding to SW1010 of the HIV-1 clone NL4-3 (TITLPCRIKQFINMWQEVG; SW-peptide derived from peptide gp120 of HIV-1 strain MN (Gurgo et al., 1988)) | weak or no effects | – | did react with CR to a lesser extend | – | –
